In patent US8961930B2, “Isatin derivatives for use as in vivo imaging agents” (Imperial Innovations Limited, priority 2008, dated 2015):
Values belong to the compound of their own block, whether it stands above or below them.

Experiments:
38C13 lymphoma cells = assay: Binding in 38C13 lymphoma cells undergoing treatment-induced apoptosis; format: cell-based, murine; settings: 38C13 cells, 4-HC 1 μg/mL 24 h
Experimental: (left panel). Chemical structure and [^18F]11 binding in 38C13 lymphoma cells treated with 4-hydroperoxycyclophosphamide 4-HC (4-HC; 1 μg/mL; 24 h) to induce apoptosis. For all treated and control samples, radioactivity data were expressed as decay-corrected counts per milligram of total cellular protein. (right panel) The effect of 4-HC on the binding of the low affinity probe, [^18F]42, in 38C13 lymphoma cells. Data are mean±s.e.m.
A further aspect of the project has involved analysis of the weak isatin caspase-3 inhibitor N-[1-(2-Fluoroethyl)-1H-[1,2,3]-triazol-4-yl]isatin (compound 42). […] However, [^18F]42 lacks the pyrrolidine sulphonamide functionality that confers high affinity and selectivity for caspase-3. [^18F]42 was investigated in cell uptake assays for direct comparison with [^18F]11. The purpose of this was to examine the uptake profiles of the compounds in an effort to determine if uptake was the result of increased cell permeability, a characteristic trait of apoptotic cells, or the result of caspase-3 binding. Unlike [^18F]11, there was no increase in [^18F]42 binding following drug treatment (see FIG. 26), supporting the notion that [^18F]11 binding is due to caspase 3 activation.

[1] = In vivo metabolism studies, radio-HPLC of plasma, liver and urine; parameters: species or system C3H/hej mice
Experimental: [^18F]11 was injected intravenously into tumor-bearing mice and its tissue distribution was measured in selected tissues at 2, 15 and 60 min after injection. […] Furthermore, the in vivo metabolic stability of the radiotracer was determined from plasma and liver samples and, for [^18F]11, in urine samples.
In vivo metabolism studies were also performed in C3H/hej mice. […] Plasma, liver and urine samples were snap-frozen in liquid nitrogen and kept in pre-weighed scintillation counting tubes on dry ice prior to analysis.
Immediately prior to extraction the samples were thawed and placed on ice. For extraction, ice cold acetonitrile (1.5 mL) was added to plasma (0.2 mL); S9 incubation samples (3 mL) containing acetonitrile were also analysed. Each mixture was centrifuged (15493×g, 4° C., 3 min) and the resulting supernatant was evaporated to dryness under vacuum at 40° C. using a rotary evaporator. Liver samples were homogenized with ice cold acetonitrile (1.5 mL) using an IKA Ultra-Turrax T-25 homogeniser prior to centrifugation. The residues were then re-suspended in HPLC mobile phase (1.2 mL) and filtered through a Minisart hydrophilic syringe filter (0.2 μm) (Sartorius, Goettingen, Germany). Urine samples were diluted with HPLC mobile phase, filtered as above. The samples (1 mL) were then analyzed by radio-HPLC on an Agilent 1100 series HPLC system (Agilent Technologies, Stockport, UK) equipped with a γ-RAM Model 3 gamma-detector and the Laura software (IN/US Systems inc., Florida, USA).
The stationary phase comprised of a Waters μBondapak C18 reverse-phase column (300×7.8 mm). […] Furthermore, to assess the fraction of [^18F]9-derived radioactivity associated with the plasma and liver pellets after extraction versus that remaining in the HPLC injectate, the total volume of HPLC injectate was recorded and an aliquot (0.1 mL) removed for counting. The radioactivity in the 0.1 mL aliquot and the pellet were then analyzed by gamma counting (Packard Instruments).

[2] = In vivo biodistribution studies (Example 5); parameters: species or system C3H/hej mice; settings: mice, i.v., 2-60 min
Experimental: The stability of novel compound [^18F]11 and known compound [^125I]14 in plasma and liver was measured over time following administration in mice. [^18F]11 was injected intravenously into tumor-bearing mice and its tissue distribution was measured in selected tissues at 2, 15 and 60 min after injection. [^125I]14 was injected intravenously into non-tumour bearing mice and its tissue distribution was measured at selected time points from 2 to 60 minutes after injection. Furthermore, the in vivo metabolic stability of the radiotracer was determined from plasma and liver samples and, for [^18F]11, in urine samples.
The radiation-induced murine fibrosarcoma (RIF-1) tumour cells^20 were maintained in RPMI 1640 medium (Invitrogen Ltd, Paisley, UK) supplemented with 10% fetal calf serum (BioWhittaker Europe Ltd, Verviers, Belgium), 2 mM L-glutamine, 100 U/mL penicillin, 100 μg/mL streptomycin and 0.25 μg/mL fungizone (Gibco, UK) at 37° C. in a humidified incubator with 5% CO2. All animal work was done by licensed investigators in accordance with the United Kingdom's “Guidance on the Operation of Animals (Scientific Procedures) Act 1986” (HMSO, London, United Kingdom, 1990) and in full compliance with government regulations and guidelines on the welfare of animals in experimental neoplasia^21. Tumors were established in mice by subcutaneous injection of 5×10^5 cells on the back of male C3H/hej mice (Harlan, Bicester, Oxfordshire, UK). Tumour growth was monitored every two days using electronic callipers, and tumor volume estimated using the equation (π/6)×L×W×D (L=length, W=width and D=depth). Animals were selected for biodistribution studies of [^18F]11 when the tumors reached ˜100-150 mm^3; biodistribution of [^125I]14 was done in non-tumor-bearing mice.
Mice were injected intravenously via the lateral vein with 0.08-0.13 mL of radioactivity (˜0.37 MBq of [^125I]14 or 3.7 MBq of [^18F]11) dissolved in phosphate buffered saline. At selected times after injection (2-60 min) mice were sacrificed by exsanguination via cardiac puncture under general anesthesia (isofluorane inhalation). Aliquots of heparinised blood were rapidly centrifuged (2000 g for 5 minutes) to obtain plasma. The radioactivity contained in tissues was determined by gamma-counting on a Cobra II Auto-Gamma counter (Packard Instruments, Meriden, Conn., USA) and expressed as a percentage of injected dose per gram of tissue (% ID/g). A minimum of three mice was used for each time point. All animals were treatment-naïve.

caspase 7 = target: T1, caspase 7 (Homo sapiens, UniProt P55210); assay: Fluorimetric in vitro caspase inhibition assay (7-AMC), caspase 7; format: biochemical; settings: recombinant human caspase 7, 10 μM Ac-DEVD-AMC
T1 construct: purchased Biomol International, UK
T1 sequence (P55210 24-198 limits assumed): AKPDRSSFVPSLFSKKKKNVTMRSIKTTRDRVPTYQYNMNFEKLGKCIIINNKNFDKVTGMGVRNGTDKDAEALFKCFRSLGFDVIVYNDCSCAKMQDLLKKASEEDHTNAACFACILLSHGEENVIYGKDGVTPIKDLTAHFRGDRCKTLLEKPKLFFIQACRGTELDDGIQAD
T1 sequence (P55210 207-303 limits assumed): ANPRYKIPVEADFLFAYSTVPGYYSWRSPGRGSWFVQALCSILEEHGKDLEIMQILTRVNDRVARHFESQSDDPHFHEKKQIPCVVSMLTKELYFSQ
Experimental: (§1) Recombinant human caspases-1, -3, -6, -7, and -8 and their peptide-specific substrates were purchased from Biomol International, UK Inhibition of the recombinant caspases by non-radioactive isatins was assessed using a fluorometric assay that measures the accumulation of a fluorogenic product, 7-amino-4-methylcoumarin (7-AMC). All assays were performed in 96-well plates at a volume of 200 μl per well. The assays were performed at 37° C. in an appropriate reaction buffer as described below for each caspase. For caspase 1, the buffer comprised of 0.1% CHAPS, 100 mM NaCl, 5 mM 2-mercaptoethanol, 100 mM HEPES (pH 7.4), 2 mM EDTA, 10% sucrose, and 10 μM of the peptide substrate Ac-YVAD-AMC. For caspase 3: 20 mM HEPES (pH 7.4), 10% sucrose, 100 mM NaCl, 0.1% CHAPS, 2 m, mM EDTA, and 10 μM Ac-DEVD-AMC. For caspase 6: 20 mM HEPES (pH 7.4), 10% sucrose, 100 mM NaCl, 0.1% CHAPS, 2 mM EDTA, and 10 μM Ac-VEID-AMC. For caspase 7: 20 mM HEPES (pH 7.4), 10% sucrose, 5 mM 2-mercaptoethanol, 100 mM NaCl, 0.1% CHAPS, 2 mM EDTA, 10 μM Ac-DEVD-AMC. For caspase 8: 20 mM HEPES (pH 7.4), 10% sucrose, 100 mM NaCl, 0.1% CHAPS, 2 mM EDTA, and 10 μM Ac-IETD-AMC. The Buffers contained non-radioactive isatins in DMSO at a final concentration of 500, 50, 5 μM; 500, 50, 5 nM; 500, 50, 5 pM; the final concentration of DMSO in all wells was 5% of the total volume. Recombinant caspases were used at 0.5 units per assay (˜500 pmol substrate converted per h). All reagents except the peptide substrate were pre-incubated for 10 min. The peptide substrate (final concentration 10 μM) was then added and the plate was incubated for a further 30 min; 30 min was selected after initial linearity study where reaction was assessed after 10, 30, 60 or 90 min. The 30 min time point was selected. Respective control wells contained all reaction components without enzyme. The amount of 7-AMC produced was measured on a fluorescence microplate reader (Victor2; Perkin-Elmer Life sciences) at excitation and emission wavelengths of 355 nm and 460 nm, respectively. The concentration of isatin that inhibits the caspase activity by 50% (EC50) was estimated by non-linear regression analysis using GraphPad Prism (Version 4.0 for Windows, GraphPad Software, San Diego Calif. USA). All the isatins were analyzed in duplicate; the assays were repeated once. Known compounds 13-16 were included as reference compounds.
(§2) The data are the average for two runs, each of which was duplicated, at nine concentrations ranging from 5 pM to 500 μM; the drug concentration required to inhibit each enzyme by 50% (EC50) was obtained from nonlinear regression analysis of the inhibition profiles.

caspase 1 = target: T2, caspase 1 (Homo sapiens, UniProt P29466); assay: Fluorimetric in vitro caspase inhibition assay (7-AMC), caspase 1; format: biochemical; settings: recombinant human caspase 1, 10 μM Ac-YVAD-AMC; read-out: Caspase EC50 (nM), 1/6/8: caspase 1
T2 construct: purchased Biomol International, UK
T2 sequence (P29466 120-297 limits assumed): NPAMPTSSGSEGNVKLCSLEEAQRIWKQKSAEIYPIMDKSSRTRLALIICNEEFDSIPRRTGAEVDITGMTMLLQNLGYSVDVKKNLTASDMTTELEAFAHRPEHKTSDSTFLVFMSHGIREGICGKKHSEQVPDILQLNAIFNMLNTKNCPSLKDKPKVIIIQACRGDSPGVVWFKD
T2 sequence (P29466 317-404 limits assumed): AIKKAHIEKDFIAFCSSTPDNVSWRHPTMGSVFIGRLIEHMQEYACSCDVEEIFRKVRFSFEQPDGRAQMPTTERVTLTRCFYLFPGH
Experimental: as §1, §2

caspase 6 = target: T3, caspase 6 (Homo sapiens, UniProt P55212); assay: Fluorimetric in vitro caspase inhibition assay (7-AMC), caspase 6; format: biochemical; settings: recombinant human caspase 6, 10 μM Ac-VEID-AMC; read-out: Caspase EC50 (nM), 1/6/8: caspase 6
T3 construct: purchased Biomol International, UK
T3 sequence (P55212 24-179 limits assumed): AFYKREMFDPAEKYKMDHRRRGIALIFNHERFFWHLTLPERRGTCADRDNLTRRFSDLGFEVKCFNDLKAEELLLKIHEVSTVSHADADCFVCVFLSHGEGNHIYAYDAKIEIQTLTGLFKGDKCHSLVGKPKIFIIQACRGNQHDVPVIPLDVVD
T3 sequence (P55212 194-293 limits assumed): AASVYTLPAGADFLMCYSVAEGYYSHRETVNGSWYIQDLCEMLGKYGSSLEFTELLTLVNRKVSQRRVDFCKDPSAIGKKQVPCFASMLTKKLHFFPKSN
Experimental: as §1, §2

caspase 8 = target: T4, caspase 8 (Homo sapiens, UniProt Q14790); assay: Fluorimetric in vitro caspase inhibition assay (7-AMC), caspase 8; format: biochemical; settings: recombinant human caspase 8, 10 μM Ac-IETD-AMC; read-out: Caspase EC50 (nM), 1/6/8: caspase 8
T4 construct: purchased Biomol International, UK
Experimental: as §1, §2

T4 sequence (Q14790 217-374 limits assumed): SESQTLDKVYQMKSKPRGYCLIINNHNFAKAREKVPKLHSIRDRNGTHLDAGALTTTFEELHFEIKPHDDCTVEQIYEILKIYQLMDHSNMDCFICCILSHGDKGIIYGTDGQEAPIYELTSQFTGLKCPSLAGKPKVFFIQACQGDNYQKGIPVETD
T4 sequence (Q14790 385-479 limits assumed): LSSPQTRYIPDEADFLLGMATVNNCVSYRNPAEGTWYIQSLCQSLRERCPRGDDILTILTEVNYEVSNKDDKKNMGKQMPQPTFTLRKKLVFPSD

Compound: O=C1C(=O)N(c2cn(CCF)nn2)c2ccccc21 [[^18F]42, N-[1-(2-Fluoroethyl)-1H-[1,2,3]-triazol-4-yl]isatin]
binding following drug treatment (38C13 lymphoma cells): no increase

parent as share of the radioactivity detected in the liver ([1]; 10 min after injection, n=3): < 15%
time until parent fully metabolized in the liver ([1]; mice, after injection): ≤ 30 min
time to complete elimination of parent from plasma ([1]; mice, i.v.): ≤ 10 min
Compound: O=C1C(=O)N(Cc2ccc(I)cc2)c2ccc(S(=O)(=O)N3CCC[C@H]3COc3ccccc3)cc21 [[^125I]14, (S)-1-(4-iodobenzyl)-5-(2-phenoxymethyl-pyrrolidine-1-sulfonyl)isatin, reference compound]
tissue distribution and elimination [2]: distributed rapidly to the major organs and was also rapidly eliminated

EC50 (caspase 7): 16.8 nM
EC50 (caspase 1): > 5000 nM
EC50 (caspase 6): > 5000 nM
EC50 (caspase 8): > 5000 nM
Compound: O=C1C(=O)N(Cc2ccc(F)cc2)c2ccc(S(=O)(=O)N3CCC[C@H]3COc3cc(F)cc(F)c3)cc21 [Compound 3, (S)-1-(4-Fluorobenzyl)-5-(2-(3,5-difluorophenoxymethyl)-pyrrolidine-1-sulfonyl)isatin]
